Source: patent US8227516B2, “Compounds as histone deacetylase inhibitors” (4SC Discovery GmbH, priority 2002, dated 2012)
Read-outs that look alike come from different tables or passages of the source.

How the values were obtained:
[1] = test system: HDAC activity in nuclear extracts from HeLa cells; assay: In vitro HDAC activity in HeLa nuclear extracts (Fluor de Lys); assay type: biochemical; settings: read-out: concentration giving 50% reduction of HDAC activity
Source text: Relative HDAC activity is shown as percent of activity of untreated nuclear extracts.
(§1) In vitro inhibition of recombinant HDAC's. The determination of histone deacetylase activity in HeLa nuclear extracts or recombinant HDAC proteins from High5 insect cells is based on the specific deacetylation of an artificial substrate (Fluor de Lys, Biomol). The substrate turn over may be detected and quantified by fluorometry. By addition of a potential HDAC inhibitor the hydrolysis of the substrate is constrained resulting in a decreased fluorometric signal. IC50 values may be calculated from dose-response curves.
(§2) The assay is separated in two steps: in the first step the substrate (Fluor de Lys/Biomol KI-104) is hydrolysed by histone deacetylases. In step two HDAC activity is terminated and the fluorophore is activated by the addition of a developer (Developer/Biomol KI-105). Nuclear extracts from HeLa cells (Biomol KI-140) or recombinant proteins and the potential HDAC inhibitor are mixed with reaction buffer (Biomol KI143) to a total volume of 25 μl per well of a 96 well plate. 25 μl substrate (1:100 dilution in reaction buffer) per well are added to start the reaction. A negative control without histone deacetylase activity and a positive control without HDAC inhibitor are treated likewise. The reaction is stopped after 15-60 min. by adding 50 μl developer (1:20 dilution in reaction buffer). After another 15 min. incubation time at room temperature the fluorescence signal is stable for 60 min and may be detected by a fluorescence reader (excitation filter: 390 nm, emission filter: 460 nm).

[2] = test system: BV-173 cells; assay: Measurement of apoptosis, FACS sub-G1 by propidium iodide staining; assay type: cell-based; settings: with Z-VAD, 24 hours
Source text: Measurement of Apoptosis. FACS analysis of the cell cycle by propidium iodide (PI) staining. The cell cycle can be divided into four different sections: During G0/1-phase cells are in senescence or proliferate, in S-phase cells start replicating their DNA, and during G2- and M-phase cells undergo mitosis. […] Degradation of DNA is a marker for apoptosis. The sub-G1 area indicates the hypodiploid DNA peak corresponding to cells with fragmented DNA undergoing apoptosis Using a dye that intercalates with DNA (such as propidium iodide—PI) the cellular DNA content was determined. Between 5×10^5-1×10^6 cells were seeded out in cell culture dishes and treated for the desired time with the desired amount of test compound. After the incubation cells were harvested, washed in cold PBS, and the cell pellet was resuspended in 1 ml 70% ethanol (−20° C.). These cell pellets may be shelved for several month.
For PI staining 3 ml cold sodium citrate solution (38 mM, pH 7.4) was added, cells were pelleted and stained with 500 μl sodium citrate solution (38 mM, pH 7.4) containing 50 μg/ml PI and 5 μg/ml RNase. After a 30 minute incubation time at 37° C. in darkness, cells were analyzed via FACS analysis. The sub-G1-peak constitutes the amount of apoptotic cells.

[3] = test system: human tumor cell lines of breast, colon, pancreas and prostate origin; assay: Growth inhibition of tumor cell lines (SRB assay); assay type: cell-based; settings: various cancer cell lines, 72 hours
Experimental: Growth inhibition of tumor cell lines. The reduction in cellular biomass was measured by SRB-assay. For this assay cells were seeded in 96 well culture dishes at densities between 3000 and 8000 cells per well. After recovery of 24 hours cells were cultured for 48-72 hours in the absence or presence of the indicated concentrations of compounds. Synergistic reduction in total cellular biomass was assayed through SRB-assay by adding the compounds in the medium at the indicated concentrations and cultivate the cells for further 48 hours.
Cells were fixed with cold Trichloracetat (TCA) producing a final TCA concentration of 10%. After 1 hour of incubation at 4° C. the cells were washed five times with water and air dried. Fixed cells were stained for 30 minutes with 0.4% (wt/vol) Sulforhodamine B (SRB) dissolved in 1% acetic acid and washed four times with 1% acetic acid to remove unbound dye. After air drying bound dye was solubilized with 10 mM unbuffered Tris base (pH 10.5) for 5 minutes. Optical densities (OD) were read on a Molecular Devices Versa Max tunable microplate reader at 520-550 nm. Four test wells for each dose-response were set in parallel with 12 control wells per cell line. Measurement of the cell population density at time 0 (To; the time at which the drug was added) was also made from 12 reference wells of cells fixed with TCA just prior to drug addition to the test plates. Background OD of complete medium with 5% FBS fixed and stained as described above was also determined in 12 separate wells. From the unprocessed OD data from each microtiter plate the background OD measurements (i.e. OD of complete medium plus stain and OD of cells at T0) were subtracted thus giving the reduction of cellular biomass of the cells.

[4] = test system: HDAC-dependent transcriptional repression in reporter cell line UAS TK-luc (293T cells); assay: Transcriptional reporter gene assay (UAS TK luciferase, Gal4-repressor fusion); assay type: cell-based; settings: for concentration at which induction of luciferase reporter gene expression starts: 24 hours treatment; for fold induction at 8 µM: Homo sapiens, HEK-293T, read-out: fold induction of luciferase reporter gene expression
Experimental: Depicted is the fold induction of luciferase expression after treatment of cells at the indicated concentrations of Compounds 1, 2 and 3.
Transcriptional reporter gene assay. The transcriptional assay for repressor activity exploits activation and derepression of a Gal4-dependent reporter gene (Hildebrand et al., 2001, J Biol Chem 276, 9889-95; Maurer et al., 2002, Blood 99, 2647-52). This assay is performed with specifically constructed permanent cell lines. 293T cell were stably transfected with a UAS TK luciferase reporter plasmid (Heinzel et al., 1997 Nature 387, pp 43-48) and an expression plasmid for the Gal4 DNA binding domain fused to an HDAC-dependent repressor molecule. While Gal4 fusion proteins repress this activity, HDAC inhibitors induce relief of this repression which can be detected as an increase in reporter gene activity (e.g. by luciferase activity detection assay).
Addition of Compounds 1, 2 and 3 relieve this repression as measured by increased expression and activity of luciferase in lysates of treated cells after 24 hours. Both, Compound 1 and 2 induce luciferase reporter gene expression after stimulation of cells for 24 hours starting at a concentration of 8 μM (2-3 fold) with a maximum induction of more than 20 fold at 200 μM. Compound 3, however, induces expression of reporter gene already at a concentration of 1.6 μM with a maximum induction of almost 40 fold at 40 μM.

[5] = test system: p21 expression in K562 cells; assay: Protein expression profiling, Western Blot: p21 induction; assay type: cell-based; settings: 36 hours
Source text: (§3) Protein expression profiling. The expression pattern induced by histone deacetylase inhibitors can be monitored by Western Blot analysis with antibodies against p21 and BCL-XL using whole cell extracts of cells treated with the respective compounds at the indicated concentrations. Modulation of protein expression is exemplified by the induction of expression of the cell cycle inhibitor/tumor suppressor p21 and the suppression of expression of the anti-apoptotic molecule BCL-XL.

[6] = test system: histone H4 acetylation in 293T cells; assay: Induction of histone H4 hyperacetylation, Western Blot; assay type: cell-based; settings: 6 hours
Source text: Induction of histone hyperacetylation. These acetylated histones can be detected by Western Blot analysis of whole cell extracts from histone deacetylase inhibitor-treated 293T cells using antibodies specific for the acetylated N-terminal lysine residues of histones H4 (Göttlicher et al., 2001, EMBO J. 20, 6969-78).
Since histone deacetylase inhibitors shift the enzymatic balance between histone acetyl transferases (HAT's) and histone deacetylases (HDAC's) towards HAT's by blocking HDAC's, they induce the accumulation of N-terminally hyperacetylated histones H4. This can be seen in FIG. 2 by the induction of histone hyperacetylation after treatment of 293T cells for 6 hours with Compounds 1, 2 and 3. Hyperacetylation can be seen with Compounds 1 and 2 at a concentration as low as 1.6 μM with a maximum induction at […], whereas compound 3 induces hyperacetylation starting at 320 nM.

[7] = test system: BCL-XL expression in K562 cells; assay: Protein expression profiling, Western Blot: BCL-XL down-regulation; assay type: cell-based; settings: 36 hours
Source text: as §3

[8] = molecular target: T1, recombinant HDAC1 (Homo sapiens, UniProt Q13547); assay: In vitro inhibition of recombinant HDAC1 (Fluor de Lys); assay type: biochemical; settings: read-out: concentration giving 50% reduction of HDAC activity
T1 construct: made in house; host or cells: High5 insect cells
T1 sequence (Q13547 whole entry, species assumed): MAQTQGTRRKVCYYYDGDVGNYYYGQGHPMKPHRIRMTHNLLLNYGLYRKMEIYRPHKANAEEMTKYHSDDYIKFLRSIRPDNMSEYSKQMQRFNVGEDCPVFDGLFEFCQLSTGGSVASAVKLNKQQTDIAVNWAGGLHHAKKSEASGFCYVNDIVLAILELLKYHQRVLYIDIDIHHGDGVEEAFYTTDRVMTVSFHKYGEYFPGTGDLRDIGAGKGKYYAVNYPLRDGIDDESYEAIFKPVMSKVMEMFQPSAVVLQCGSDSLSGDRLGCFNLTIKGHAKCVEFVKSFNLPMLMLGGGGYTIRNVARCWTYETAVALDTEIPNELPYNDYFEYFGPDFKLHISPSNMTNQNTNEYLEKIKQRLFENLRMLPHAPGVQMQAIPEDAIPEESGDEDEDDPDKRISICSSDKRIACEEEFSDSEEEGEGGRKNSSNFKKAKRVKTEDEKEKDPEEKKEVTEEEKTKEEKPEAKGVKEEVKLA
Source text: (§4) Relative HDAC activity is shown as percent of activity of untreated HDAC enzymes.
as §1
as §2, with “A negative control without histone deacetylase activity and a positive control without HDAC inhibitor are treated likewise. The reaction is stopped after 15-60 min. by adding 50 μl developer (1:20 dilution in reaction buffer).” left out

[9] = molecular target: T2, recombinant HDAC8 (Homo sapiens, UniProt Q9BY41); assay: In vitro inhibition of recombinant HDAC8 (Fluor de Lys); assay type: biochemical; settings: read-out: concentration giving 50% reduction of HDAC activity
T2 construct: made in house; host or cells: High5 insect cells
T2 sequence (Q9BY41 1-377): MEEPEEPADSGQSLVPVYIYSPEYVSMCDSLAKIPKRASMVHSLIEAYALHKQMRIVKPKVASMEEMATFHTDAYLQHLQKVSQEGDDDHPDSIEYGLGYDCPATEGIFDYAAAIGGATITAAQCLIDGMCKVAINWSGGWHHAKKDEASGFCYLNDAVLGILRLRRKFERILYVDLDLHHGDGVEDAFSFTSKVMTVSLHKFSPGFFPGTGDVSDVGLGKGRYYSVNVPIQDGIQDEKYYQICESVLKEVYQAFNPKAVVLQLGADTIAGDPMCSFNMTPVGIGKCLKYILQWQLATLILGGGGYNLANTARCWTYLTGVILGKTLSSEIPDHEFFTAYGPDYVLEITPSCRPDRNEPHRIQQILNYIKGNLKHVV
Source text: as §4, §1
as §2, with “A negative control without histone deacetylase activity and a positive control without HDAC inhibitor are treated likewise. The reaction is stopped after 15-60 min. by adding 50 μl developer (1:20 dilution in reaction buffer).” left out

[10] = molecular target: T3, recombinant HDAC6 (Homo sapiens, UniProt Q9UBN7); assay: In vitro inhibition of recombinant HDAC6 (Fluor de Lys); assay type: biochemical; settings: read-out: concentration giving 50% reduction of HDAC activity
T3 construct: made in house; host or cells: High5 insect cells
T3 sequence (Q9UBN7 1-1215): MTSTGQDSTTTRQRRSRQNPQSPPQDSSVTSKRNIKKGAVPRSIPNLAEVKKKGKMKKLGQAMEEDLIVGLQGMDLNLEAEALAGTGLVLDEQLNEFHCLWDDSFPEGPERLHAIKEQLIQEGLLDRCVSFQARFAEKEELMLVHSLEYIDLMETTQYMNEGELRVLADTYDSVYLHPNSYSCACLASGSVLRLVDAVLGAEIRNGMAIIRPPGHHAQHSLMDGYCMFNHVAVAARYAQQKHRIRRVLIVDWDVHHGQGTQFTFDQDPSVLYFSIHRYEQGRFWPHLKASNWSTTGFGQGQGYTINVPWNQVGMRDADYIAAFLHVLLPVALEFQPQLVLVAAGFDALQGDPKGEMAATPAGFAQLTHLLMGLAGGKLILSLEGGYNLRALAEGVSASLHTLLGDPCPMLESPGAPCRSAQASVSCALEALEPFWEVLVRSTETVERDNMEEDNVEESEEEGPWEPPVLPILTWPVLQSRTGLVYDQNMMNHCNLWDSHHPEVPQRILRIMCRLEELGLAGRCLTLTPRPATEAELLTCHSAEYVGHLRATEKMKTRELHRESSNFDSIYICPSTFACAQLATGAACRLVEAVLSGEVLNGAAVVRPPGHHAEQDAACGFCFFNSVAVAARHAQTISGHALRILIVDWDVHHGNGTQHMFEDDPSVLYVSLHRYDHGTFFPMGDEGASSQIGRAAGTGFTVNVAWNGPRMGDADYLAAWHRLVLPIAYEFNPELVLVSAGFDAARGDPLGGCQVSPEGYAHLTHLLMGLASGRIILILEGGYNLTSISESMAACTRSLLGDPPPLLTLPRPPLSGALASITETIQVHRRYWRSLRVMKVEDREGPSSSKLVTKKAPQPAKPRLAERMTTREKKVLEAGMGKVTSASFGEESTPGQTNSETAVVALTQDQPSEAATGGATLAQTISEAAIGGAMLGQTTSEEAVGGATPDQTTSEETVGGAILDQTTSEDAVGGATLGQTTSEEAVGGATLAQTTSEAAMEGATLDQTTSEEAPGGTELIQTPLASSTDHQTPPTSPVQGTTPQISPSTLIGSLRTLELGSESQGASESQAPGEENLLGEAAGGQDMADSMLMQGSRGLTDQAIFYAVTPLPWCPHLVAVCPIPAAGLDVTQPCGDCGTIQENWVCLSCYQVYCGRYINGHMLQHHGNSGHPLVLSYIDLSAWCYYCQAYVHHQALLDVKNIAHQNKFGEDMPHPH
Source text: as §4, §1
as §2, with “A negative control without histone deacetylase activity and a positive control without HDAC inhibitor are treated likewise. The reaction is stopped after 15-60 min. by adding 50 μl developer (1:20 dilution in reaction buffer).” left out

[11] = read-out: concentration inducing 50% growth arrest (IC50), mean over cell lines
[12] = read-out: concentrations inducing 50% growth arrest (IC50), range over cell lines

Structure (SMILES)	IC50 [1]	apoptotic process in the presence of pan-caspase inhibitor Z-VAD [2]	IC50 [3, 11]	IC50 [3, 12]	concentration at which induction of luciferase reporter gene expression starts [4]	fold induction at 8 µM ([4]; 24 hours)	concentration inducing p21 expression [5]	concentration of maximum induction of histone H4 hyperacetylation [6]	lowest concentration at which histone H4 hyperacetylation is seen [6]	concentration inducing BCL-XL downregulation [7]	IC50 [8]	IC50 [9]	IC50 [10]	maximum induction of luciferase reporter gene expression ([4]; at 40 μM, 24 hours)	concentration at which histone H4 hyperacetylation starts [6]
O=C(CCC1CCCC1)NO [Compound 1, 3-Cyclopentyl-N-hydroxy-propionamide]	14.7 µM	completely blocked	33 µM	8 to 70 µM	8 µM	2 to 3	40 µM	40 µM	1.6 µM	200 µM	–	–	–	–	–
O=C(C=CC1CCCCC1)NO [Compound 3, 3-Cyclohexyl-N-hydroxy-acrylamide]	0.9 µM	completely blocked	2.6 µM	0.5 to 8 µM	1.6 µM	–	8 µM	–	–	8 µM	0.3 to 0.4 µM	0.3 to 0.4 µM	0.3 to 0.4 µM	~40 fold	320 nM
O=C(CCC1CCCCC1)NO [Compound 2, 3-Cyclohexyl-N-hydroxy-propionamide]	6.1 µM	completely blocked	15 µM	5 to 26 µM	8 µM	2 to 3	8 µM	40 µM	1.6 µM	8 µM	–	–	–	–	–
